Among the data in ChEMBL document CHEMBL4725344, “Development of Highly Potent Carbazole Amphiphiles as Membrane-Targeting Antimicrobials for Treating Gram-Positive Bacterial Infections” (J Med Chem, 2020) are MIC, HC50 and solubility values, retold here.

SMILES strings stand for the structures. Converted amounts (≈) assume the structure as drawn. Where only a bound is given, the exact number is not on record here.

In series [1] the test system is Staphylococcus aureus. Description: Antibacterial activity against methicillin-resistant Staphylococcus aureus N315 measured after 24 hrs by microplate reader analysis. In kind it is functional.
The test system of series [2] is Staphylococcus aureus. Description: Antibacterial activity against methicillin-resistant Staphylococcus aureus NCTC 10442 measured after 24 hrs by microplate reader analysis. The format is functional.
Series [3] can be described thus: Hemolytic activity in rabbit erythrocytes measured after 1 hr by microplate reader analysis. In kind it is ADME, cell-based, Oryctolagus cuniculus, Erythrocyte.
Series [4] deals with Staphylococcus aureus. As to the kind of experiment: Antibacterial activity against Staphylococcus aureus ATCC 29213 measured after 24 hrs by microplate reader analysis. The format is functional.
Series [5] can be described thus: Solubility of the compound in water. The format is physicochemical. To be noted: buffer.

One may read the MIC as the lowest concentration that inhibits growth of the organism. The low end stands for inhibition by little substance, the high end for a need for much substance. The term HC50 denotes the concentration giving 50% haemolysis. Low values mean more damage to red cells, high ones less damage to red cells. In the case of `CN(C)CC(O)COc1cccc2[nH]c3ccccc3c12` (stereo not drawn), the MIC in series [1], in series [2] and in series [4] was over 50 µg/mL in each case. Moreover, the HC50 at 1 h in series [3] is over 200 µg/mL.
As to `CCCCCNCC(O)COc1cccc2c1c1ccccc1n2CC=C(C)C` (stereo not drawn), the MIC stood at 6.25 µg/mL (≈ 15.8 µM) in series [1], 12.5 µg/mL (≈ 31.7 µM) in series [2] and 12.5 µg/mL (≈ 31.7 µM) in series [4]. In series [3], the HC50 at 1 h is over 200 µg/mL.
For `CCCn1c2ccccc2c2c(OCC(O)CN(C)C)cccc21` (stereo not drawn), the MIC in series [1], in series [2] and in series [4] was 50 µg/mL (≈ 153 µM) in each case. Also, the HC50 at 1 h in series [3] was over 200 µg/mL.
Take `CCCCCn1c2ccccc2c2c(OCC(O)CN(C)C)cccc21` (stereo not drawn): the MIC was 6.25 µg/mL (≈ 17.6 µM) in series [1], 6.25 µg/mL (≈ 17.6 µM) in series [2] and 12.5 µg/mL (≈ 35.3 µM) in series [4]. This compound also registered an HC50 at 1 h in series [3] of 152 µg/mL.
As for `CC(C)=CCn1c2ccccc2c2c(OCC(O)CN(CCO)CCO)cccc21` (stereo not drawn), the MIC in series [1], in series [2] and in series [4] was 25 µg/mL (≈ 60.6 µM) in each case. Also, the HC50 at 1 h in series [3] amounted to 126 µg/mL.
As to `CCCCCCCn1c2ccccc2c2c(OCC(O)CN(C)C)cccc21` (stereo not drawn), the figures for the MIC in series [1], in series [2] and in series [4] were 12.5 µg/mL (≈ 32.7 µM), 12.5 µg/mL (≈ 32.7 µM) and 6.25 µg/mL (≈ 16.3 µM), respectively. Moreover, the HC50 at 1 h in series [3] was 182 µg/mL.
`CCCCCCCn1c2ccccc2c2c(OCC3CO3)cccc21` (stereo not drawn): the MIC in series [1], in series [2] and in series [4] was over 50 µg/mL in each case. Moreover, the HC50 at 1 h in series [3] was over 200 µg/mL.
As to `CCN(CC)CC(O)COc1cccc2c1c1ccccc1n2CC=C(C)C` (stereo not drawn), the MIC in series [1], in series [2] and in series [4] was 12.5 µg/mL (≈ 32.8 µM) in each case. The compound further registered an HC50 at 1 h in series [3] of 88.7 µg/mL.
On to `CC(C)=CCn1c2ccccc2c2c(OCC(O)CN)cccc21` (stereo not drawn), for which the MIC in series [1] amounted to 6.25 µg/mL (≈ 19.3 µM); in series [2], 6.25 µg/mL (≈ 19.3 µM); in series [4] it was 12.5 µg/mL (≈ 38.5 µM). The same compound displayed an HC50 at 1 h in series [3] of over 200 µg/mL.
In the case of `CCCCCCCCCCNCC(O)COc1cccc2c1c1ccccc1n2CC=C(C)C` (stereo not drawn), the MIC is 1.56 µg/mL (≈ 3.36 µM) in series [1], 3.12 µg/mL (≈ 6.72 µM) in series [2] and 6.25 µg/mL (≈ 13.4 µM) in series [4]. Further, the solubility result in series [5] is recorded as “Insoluble”. In series [3], this compound yielded an HC50 at 1 h of over 200 µg/mL.
Take `CCCC[N+](C)(CCCC)CC(O)COc1cccc2c1c1ccccc1n2CC=C(C)C.[I-]` (stereo not drawn): the minimal inhibitory concentration (MIC) in series [1], in series [2] and in series [4] was 1.56 µg/mL each time. Further, in series [3], the HC50 at 1 h worked out at 61.3 µg/mL.
On to `CC(C)=CCn1c2ccccc2c2c(OCC(O)CN3CCSCC3)cccc21` (stereo not drawn), for which the MIC in series [1], in series [2] and in series [4] was over 50 µg/mL throughout. The compound further had a 50% haemolytic concentration (HC50) at 1 h in series [3] of over 200 µg/mL.
For `CC[N+](C)(CC)CC(O)COc1cccc2c1c1ccccc1n2CC=C(C)C.[I-]` (stereo not drawn), the MIC in series [1], in series [2] and in series [4] was 6.25 µg/mL throughout. This compound also gave an HC50 at 1 h in series [3] of 142 µg/mL.
Take `CCCCCCCCCn1c2ccccc2c2c(OCC3CO3)cccc21` (stereo not drawn): the MIC in series [1], in series [2] and in series [4] was over 50 µg/mL each time. The HC50 at 1 h in series [3] was over 200 µg/mL.
Take `CC(C)NCC(O)COc1cccc2[nH]c3ccccc3c12` (stereo not drawn) [CARAZOLOL]: the MIC in series [1], in series [2] and in series [4] was over 50 µg/mL throughout. For the same compound, in series [3], the HC50 at 1 h is over 200 µg/mL.
On to `CCCN(CCC)CC(O)COc1cccc2c1c1ccccc1n2CC=C(C)C` (stereo not drawn), for which the MIC in series [1], in series [2] and in series [4] was over 50 µg/mL in each case. The compound further displayed an HC50 at 1 h in series [3] of over 200 µg/mL.
With `CCCCCCCCCn1c2ccccc2c2c(OCC(O)CN(C)C)cccc21` (stereo not drawn), the MIC in series [1] was 6.25 µg/mL (≈ 15.2 µM); in series [2], 6.25 µg/mL (≈ 15.2 µM); in series [4] it was 12.5 µg/mL (≈ 30.4 µM). The same compound gave a concentration for 50% haemolysis (HC50) at 1 h in series [3] of 128 µg/mL.
For `CCNCC(O)COc1cccc2c1c1ccccc1n2CC=C(C)C` (stereo not drawn), the minimum inhibitory concentration (MIC) in series [1] was found to be 3.12 µg/mL (≈ 8.87 µM); in series [2] it was 6.25 µg/mL (≈ 17.7 µM); in series [4] it was 6.25 µg/mL (≈ 17.7 µM). The HC50 at 1 h in series [3] amounted to 156 µg/mL.
With `CCCNCC(O)COc1cccc2c1c1ccccc1n2CC=C(C)C` (stereo not drawn), the MIC worked out at 3.12 µg/mL (≈ 8.53 µM) in series [1], 6.25 µg/mL (≈ 17.1 µM) in series [2] and 6.25 µg/mL (≈ 17.1 µM) in series [4]. In addition, the HC50 at 1 h in series [3] is over 200 µg/mL.
Turning to `CCCn1c2ccccc2c2c(OCC3CO3)cccc21` (stereo not drawn), the MIC in series [1], in series [2] and in series [4] was over 50 µg/mL each time. Also, in series [3], the HC50 at 1 h is over 200 µg/mL.
Turning to `CC(C)=CCn1c2ccccc2c2c(OCC(O)CN(C)C)cccc21` (stereo not drawn), the MIC in series [1] turned out to be 3.12 µg/mL (≈ 8.87 µM); in series [2], 3.12 µg/mL (≈ 8.87 µM); in series [4], 6.25 µg/mL (≈ 17.7 µM). In addition, the HC50 at 1 h in series [3] turned out to be 119 µg/mL.
`CC(C)=CCn1c2ccccc2c2c(OCC(O)CN3CCN(C)CC3)cccc21` (stereo not drawn): the MIC in series [1], in series [2] and in series [4] was 12.5 µg/mL (≈ 30.7 µM) each time. In series [3], the HC50 at 1 h came to 70 µg/mL.
For `CC(C)=CCn1c2ccccc2c2c(OCC(O)CN3CCCCC3)cccc21` (stereo not drawn), the MIC was found to be 3.12 µg/mL (≈ 7.96 µM) in series [1], 3.12 µg/mL (≈ 7.96 µM) in series [2] and 6.25 µg/mL (≈ 15.9 µM) in series [4]. Further, in series [3], the HC50 at 1 h worked out at 81.8 µg/mL.
Turning to `NCC(O)COc1cccc2[nH]c3ccccc3c12` (stereo not drawn), the MIC in series [1], in series [2] and in series [4] was over 50 µg/mL each time. Besides, the HC50 at 1 h in series [3] is over 200 µg/mL.
For `CCCCN(CCCC)CC(O)COc1cccc2c1c1ccccc1n2CC=C(C)C` (stereo not drawn), the MIC in series [1], in series [2] and in series [4] was over 50 µg/mL throughout. The HC50 at 1 h in series [3] was over 200 µg/mL.
For the compound `CC(C)=CCn1c2ccccc2c2c(OCC(O)CN3CCCC3)cccc21` (stereo not drawn), the MIC in series [1] turned out to be 6.25 µg/mL (≈ 16.5 µM); in series [2], 6.25 µg/mL (≈ 16.5 µM); in series [4] it was 12.5 µg/mL (≈ 33 µM). Further, in series [3], the HC50 at 1 h came to 76.2 µg/mL.
Take `N=C(N)NCC(O)COc1cccc2[nH]c3ccccc3c12` (stereo not drawn): the MIC in series [1], in series [2] and in series [4] was 50 µg/mL (≈ 168 µM) each time. The HC50 at 1 h in series [3] is over 200 µg/mL.
Regarding `CC(C)=CCn1c2ccccc2c2c(OCC(O)CNC(C)C)cccc21` (stereo not drawn), the results for the MIC in series [1], in series [2] and in series [4] were 3.12 µg/mL (≈ 8.53 µM), 3.12 µg/mL (≈ 8.53 µM) and 6.25 µg/mL (≈ 17.1 µM), respectively. Besides, the HC50 at 1 h in series [3] stood at 160 µg/mL.
With `CC(C)=CCn1c2ccccc2c2c(OCC3CO3)cccc21` (stereo not drawn), the MIC in series [1], in series [2] and in series [4] was over 50 µg/mL throughout. The HC50 at 1 h in series [3] was over 200 µg/mL.
Consider `Cn1c2ccccc2c2c(OCC3CO3)cccc21` (stereo not drawn), for which the minimal inhibitory concentration (MIC) in series [1], in series [2] and in series [4] was over 50 µg/mL in each case. Besides, in series [3], the HC50 at 1 h was over 200 µg/mL.
With `CN(C)CC(O)COc1cccc2c1c1ccccc1n2C` (stereo not drawn), the MIC in series [1], in series [2] and in series [4] was over 50 µg/mL in each case. Moreover, in series [3], the concentration for 50% haemolysis (HC50) at 1 h is over 200 µg/mL.
`CCCCCCCCNCC(O)COc1cccc2c1c1ccccc1n2CC=C(C)C` (stereo not drawn): the MIC came to 1.56 µg/mL (≈ 3.57 µM) in series [1], 1.56 µg/mL (≈ 3.57 µM) in series [2] and 6.25 µg/mL (≈ 14.3 µM) in series [4]. In addition, the solubility entry in series [5] was “Insoluble”. Moreover, in series [3], the HC50 at 1 h is over 200 µg/mL.
In the case of `c1ccc2c(c1)[nH]c1cccc(OCC3CO3)c12` (stereo not drawn), the MIC in series [1], in series [2] and in series [4] was over 50 µg/mL in each case. Further, the HC50 at 1 h in series [3] is over 200 µg/mL.
As to `CCCCCn1c2ccccc2c2c(OCC3CO3)cccc21` (stereo not drawn), the MIC in series [1], in series [2] and in series [4] was over 50 µg/mL in each case. This compound also yielded an HC50 at 1 h in series [3] of over 200 µg/mL.
